Measurements as given in patent US10231996B2, “Biocampatible polymer coated silver Prussian blue nanoparticles (SPB-NPs: Ag3[Fe(CN) 6])” (COUNCIL OF SCIENTIFIC & INDUSTRIAL RESEARCH, priority 2015, dated 2019).

Tests used:
[1] = system: B16F10 aggressive murine melanoma tumor; assay: In vivo B16F10 melanoma tumor model in C57BL6/J mice; conditions: free Dox 2.5 mg/kg, after four IP injections, compared to SPB(1,1)NPs treated mice
Experimental: In vivo tumor model was carried out using male C57BL6/J mice (8-9 weeks old). Approximately, 2.5×10^5 B16F10 cells resuspended in 100 μL of sterile HBSS were subcutaneously injected to lower right abdomen of male mice. […] All the treatments were Intraperitoneally (IP) injected on alternate days over a period of 15 days. The volume of tumor was measured by using the formula (0.5×ab^2), where ‘a’ represents the longest dimension and ‘b’ represents the shortest dimension of the tumors. Also, the weight and picture of the tumors were taken after the sacrifice. […] The loss of body weight can correlate with the nonspecific side effects of Dox in normal physiological function.

E. coli [2] = assay: Colony forming units (CFU), E. coli; type: cell-based; conditions: positive control 2 mg/ml, 24 hours
Experimental: (§1) Streptomycin at 2 mg/ml concentration was used as positive control. The plated were incubated for 24 hours at 37° C. The number of colonies appeared on the surface of the LB agar plates were counted. […] We previously reported the antibacterial activity of biosynthesized silver nanoparticles (Mukherjee et al. Theranostics, 2014; 4: 316-335).

Bacillus subtilis = assay: Colony forming units (CFU), Bacillus subtilis; type: cell-based; conditions: positive control 2 mg/ml, 24 hours
Experimental: as §1

E. coli [3] = assay: Measurement of lipid peroxidation; type: cell-based; conditions: positive control; (sample O.D/Control O.D)×100
Experimental: Lipid peroxidation was measured according to standard protocol. […] 1.5 ml of 20% acetic acid (pH 3.5), 1.5 ml of 0.8% thiobarbituric acid (in 1.1% SDS) and 0.05 ml of 20% TCA were added and mixed thoroughly. The tubes were then incubated for 60 minutes at 100° C. and 5 ml of butanol was added to each tube. The tubes were then centrifuged at 4000 rpm for 15 minutes. The pink supernatant was measures at 532 nm. The % of lipid peroxidation was measured by using the following formula: % of lipid peroxidation=(sample O.D/Control O.D)×100.

SMILES | body weight [1] | bacterial growth (colonies) (E. coli [2]) | bacterial growth (colonies) (Bacillus subtilis) | lipid peroxidation (E. coli [3])
COc1cccc2c1C(=O)c1c(O)c3c(c(O)c1C2=O)C[C@@](O)(C(=O)CO)C[C@@H]3O[C@H]1C[C@H](N)[C@H](O)[C@H](C)O1 [Dox, doxorubicin] | significant loss of bodyweight | – | – | –
[H]/N=C(/N)N[C@H]1[C@H](O)[C@@H](O)[C@H](O[C@@H]2O[C@@H](C)[C@](O)(C=O)[C@H]2O[C@@H]2O[C@@H](CO)[C@H](O)[C@@H](O)[C@@H]2NC)[C@@H](N/C(N)=N\[H])[C@@H]1O [streptomycin] | – | bacterial colonies were observed | bacterial colonies were observed | 60%
